Biological target: T1, SlitOR5/SlitOrco (Spodoptera littoralis, UniProt A0A5J6NJF6)
T1 construct: full-length open reading frames (SlitOr5 1191 bp) in pCS2+, cRNAs co-injected in Xenopus oocytes; heteromer with co-receptor Orco; with Odorant receptor coreceptor
T1 sequence (A0A5J6NJF6 1-397): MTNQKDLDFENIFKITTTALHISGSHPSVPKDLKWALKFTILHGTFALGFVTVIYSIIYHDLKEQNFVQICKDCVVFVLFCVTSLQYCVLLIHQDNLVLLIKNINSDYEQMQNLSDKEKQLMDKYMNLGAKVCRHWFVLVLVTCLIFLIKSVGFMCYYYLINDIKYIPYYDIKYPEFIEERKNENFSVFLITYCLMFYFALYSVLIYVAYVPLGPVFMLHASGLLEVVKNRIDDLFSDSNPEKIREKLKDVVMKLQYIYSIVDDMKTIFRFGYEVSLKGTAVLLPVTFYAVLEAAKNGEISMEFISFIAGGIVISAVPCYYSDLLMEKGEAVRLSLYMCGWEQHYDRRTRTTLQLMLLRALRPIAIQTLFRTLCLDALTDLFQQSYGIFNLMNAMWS
T1 sequence (B6C755 1-473 partner): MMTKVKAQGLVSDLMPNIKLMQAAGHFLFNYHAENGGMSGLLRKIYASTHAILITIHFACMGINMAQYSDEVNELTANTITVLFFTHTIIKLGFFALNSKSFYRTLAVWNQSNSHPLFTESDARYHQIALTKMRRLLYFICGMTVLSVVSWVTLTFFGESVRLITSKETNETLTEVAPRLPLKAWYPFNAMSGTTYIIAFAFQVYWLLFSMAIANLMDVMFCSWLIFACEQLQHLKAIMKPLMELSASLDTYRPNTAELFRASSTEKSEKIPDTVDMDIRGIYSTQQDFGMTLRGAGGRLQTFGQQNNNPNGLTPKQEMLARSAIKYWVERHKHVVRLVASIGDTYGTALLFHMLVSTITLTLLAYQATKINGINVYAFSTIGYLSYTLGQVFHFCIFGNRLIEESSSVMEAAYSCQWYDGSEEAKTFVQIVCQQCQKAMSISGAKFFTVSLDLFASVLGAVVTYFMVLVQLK
Assay: two-electrode voltage clamp, inward current in Xenopus oocytes
Assay type: cell-based

EC50: 171 nM
SMILES: CC/C=C/C=C\CCCCCCCCOC(C)=O [(Z,E)-9,11-14:OAc, (Z,E)-9,11-tetradecadienyl acetate]
